Data reported in ChEMBL document CHEMBL1133044, “Nonpeptide GPIIB/IIIA receptor antagonists. Part 21: C-6 flexibility and amide bond orientation are important factors in determining the affinity of compounds for activated or resting platelet receptors” (Bioorg Med Chem Lett, 2000).

Tests used:
[1] = molecular target: T1, Integrin alpha-IIb/beta-3 (Homo sapiens, UniProt P05106+P08514); assay: Binding affinity to resting form of alpha IIb/beta3 integrin by flow cytometry using fluorescein ligand L-726,745 displacement from human platelets.
Target sequence in this assay (P05106 27-788 limits assumed): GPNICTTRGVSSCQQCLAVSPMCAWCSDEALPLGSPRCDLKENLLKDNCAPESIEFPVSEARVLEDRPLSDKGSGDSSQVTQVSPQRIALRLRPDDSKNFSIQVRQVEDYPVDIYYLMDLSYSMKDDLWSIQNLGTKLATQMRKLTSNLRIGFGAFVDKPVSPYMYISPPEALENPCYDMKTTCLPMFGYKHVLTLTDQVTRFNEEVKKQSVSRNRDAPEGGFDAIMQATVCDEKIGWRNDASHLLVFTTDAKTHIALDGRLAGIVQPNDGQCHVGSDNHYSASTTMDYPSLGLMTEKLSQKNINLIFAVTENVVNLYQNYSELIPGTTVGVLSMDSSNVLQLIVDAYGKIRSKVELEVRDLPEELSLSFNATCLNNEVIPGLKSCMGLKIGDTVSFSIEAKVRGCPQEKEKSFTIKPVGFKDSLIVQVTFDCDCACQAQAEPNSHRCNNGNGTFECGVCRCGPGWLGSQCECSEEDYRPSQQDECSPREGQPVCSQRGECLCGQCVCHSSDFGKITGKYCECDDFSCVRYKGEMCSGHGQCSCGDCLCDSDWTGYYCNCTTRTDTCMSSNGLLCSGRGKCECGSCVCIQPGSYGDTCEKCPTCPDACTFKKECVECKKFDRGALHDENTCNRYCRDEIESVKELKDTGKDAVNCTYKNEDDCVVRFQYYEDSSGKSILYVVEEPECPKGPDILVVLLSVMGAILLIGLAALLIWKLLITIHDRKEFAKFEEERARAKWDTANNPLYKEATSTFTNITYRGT
Target sequence in this assay (P08514 32-887 limits assumed): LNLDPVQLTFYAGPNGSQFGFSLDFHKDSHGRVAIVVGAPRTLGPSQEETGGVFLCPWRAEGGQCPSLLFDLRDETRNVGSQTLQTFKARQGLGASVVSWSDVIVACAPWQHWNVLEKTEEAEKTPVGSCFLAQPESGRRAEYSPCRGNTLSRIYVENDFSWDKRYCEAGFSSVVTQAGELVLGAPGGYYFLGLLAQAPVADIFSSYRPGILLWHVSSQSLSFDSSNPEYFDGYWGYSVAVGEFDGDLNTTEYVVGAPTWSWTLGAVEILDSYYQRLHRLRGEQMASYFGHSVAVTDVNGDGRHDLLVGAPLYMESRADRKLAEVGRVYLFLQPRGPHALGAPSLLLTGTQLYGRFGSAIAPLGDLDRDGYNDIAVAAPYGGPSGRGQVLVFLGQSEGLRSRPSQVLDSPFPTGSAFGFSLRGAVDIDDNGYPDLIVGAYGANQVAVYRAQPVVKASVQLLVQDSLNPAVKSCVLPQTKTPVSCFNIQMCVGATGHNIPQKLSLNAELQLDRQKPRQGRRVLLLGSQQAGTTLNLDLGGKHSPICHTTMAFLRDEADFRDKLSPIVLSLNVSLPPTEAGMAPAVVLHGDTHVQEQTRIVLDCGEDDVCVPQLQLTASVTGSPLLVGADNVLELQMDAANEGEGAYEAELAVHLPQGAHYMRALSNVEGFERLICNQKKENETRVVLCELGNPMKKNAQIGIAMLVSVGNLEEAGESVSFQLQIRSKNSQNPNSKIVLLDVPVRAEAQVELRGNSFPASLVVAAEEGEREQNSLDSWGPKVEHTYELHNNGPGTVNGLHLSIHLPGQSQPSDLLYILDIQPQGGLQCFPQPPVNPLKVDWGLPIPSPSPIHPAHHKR
Target sequence in this assay (P08514 891-1039 limits assumed): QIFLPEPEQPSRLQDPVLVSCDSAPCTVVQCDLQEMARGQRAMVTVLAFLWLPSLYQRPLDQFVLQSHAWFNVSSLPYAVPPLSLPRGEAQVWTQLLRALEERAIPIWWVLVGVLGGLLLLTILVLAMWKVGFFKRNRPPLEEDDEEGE

[2] = molecular target: T1, Integrin alpha-IIb/beta-3; assay: Selectivity as determined by the ratio of KDs, resting receptor over activated receptor; type: protein-complex assay
[3] = molecular target: T1, Integrin alpha-IIb/beta-3; assay: Competition with [1251]L-692,884 for binding to purified alpha IIb/beta3 integrin, activated by coating onto yttrium silicate scintillation proximity assay fluomicrospheres.; type: protein-complex assay
Target sequence in this assay (P05106 27-788 limits assumed): as the sequence (P05106 27-788 limits assumed) above
Target sequence in this assay (P08514 32-887 limits assumed): as the sequence (P08514 32-887 limits assumed) above
Target sequence in this assay (P08514 891-1039 limits assumed): as the sequence (P08514 891-1039 limits assumed) above

[4] = Inhibition of aggregation of human gel-filtered platelets measured by light transmittance method at 37 degrees C.

| Compound | Kd [1] [nM] | Selectivity [2] | Kd [3] [nM] | IC50 [4] [nM] |
| --- | --- | --- | --- | --- |
| C[C@@H](/C=C/CN1CCC[C@@H](CCC2CCNCC2)C1=O)CC(=O)O | 2300 | 192 | 12 |  |
| O=C(O)C[C@@H](CO)NC(=O)CN1CCc2ccc(N3CCNCC3)cc2C1=O | > 1000 | > 67 | 15 |  |
| C#C[C@H](CC(=O)O)NC(=O)C[C@H]1CCCN(CCC2CCNCC2)C1=O | 6.1 | 18 | 0.34 |  |
| O=C(O)C[C@H](NC(=O)CN1CCc2ccc(N3CCNCC3)cc2C1=O)c1cccnc1 | 3.4 | 14 | 0.25 |  |
| O=C(O)C[C@@H](CO)NC(=O)c1ccc2c(c1)C(=O)N(CCC1CCNCC1)C2 | 47 | 2 | 21 |  |
| C#C[C@H](CC(=O)O)NC(=O)CN1CCC[C@@H](CCC2CCNCC2)C1=O | 210 | 244 | 0.86 |  |
| O=C(O)CCNC(=O)CN1CCc2ccc(N3CCNCC3)cc2C1=O |  |  | 9.7 |  |
| O=C(NC[C@H](NS(=O)(=O)c1ccccc1)C(=O)O)c1cc2cc(OCCC3CCNCC3)ccc2[nH]1 | 1.3 | 24 | 0.056 |  |
| O=C(NC[C@H](NS(=O)(=O)c1ccccc1)C(=O)O)c1ccc(OCCC2CCNCC2)cc1 | 2.4 | 15 | 0.16 |  |
| O=C(O)CCNC(=O)c1ccc2c(c1)C(=O)N(CCC1CCNCC1)C2 | 120 | 9 | 13 | 27 |
| C#CC(CC(=O)O)NC(=O)CN(C(=O)c1cccc(C2CCNCC2)c1)C1CC1 (stereo unspecified) | 120 | 141 | 0.85 |  |
| C#C[C@H](CC(=O)O)NC(=O)CN1CCc2ccc(N3CCNCC3)cc2C1=O | 50 | 89 | 0.56 |  |
| CC(CC(=O)O)NC(=O)c1ccc2c(c1)C(=O)N(CCC1CCNCC1)C2 (stereo unspecified) | 49 | 0.8 | 64 |  |
| C#C[C@H](CC(=O)O)NC(=O)c1ccc2c(c1)C(=O)N(CCc1ccnc(N)c1)C2 | 84 | 38 | 2.2 |  |
| Cc1ccc(S(=O)(=O)N[C@@H](CNC(=O)c2cc3n(n2)CCCN(CCC2CCNCC2)C3=O)C(=O)O)cc1 |  | 18 | 0.08 |  |
| O=C(O)C[C@H](NC(=O)CN1CCC[C@@H](CCC2CCNCC2)C1=O)c1cccnc1 | 84 | 221 | 0.38 |  |
| O=C(O)CCNC(=O)c1cc2n(n1)CCCN(CCC1CCNCC1)C2=O |  | 14 | 46 | 470 |
| O=C(CN1CCC[C@@H](CCC2CCNCC2)C1=O)NC[C@H](NS(=O)(=O)c1ccccc1)C(=O)O | 15 | 19 | 0.78 |  |
| O=C(NC[C@H](NS(=O)(=O)c1ccccc1)C(=O)O)c1ccc2c(c1)C(=O)N(CCC1CCNCC1)C2 | 3.1 | 12 | 0.25 |  |
| C#C[C@H](CC(=O)O)NC(=O)C[C@H]1CCCN(CCc2ccnc(N)c2)C1=O | 60 | 230 | 0.26 |  |
| O=C(NC[C@H](NS(=O)(=O)c1ccccc1)C(=O)O)c1cc2cc(CCC3CCNCC3)sc2s1 | 2.1 | 23 | 0.09 | 8 |
| O=C(CN1CCc2ccc(N3CCNCC3)cc2C1=O)NC[C@H](NS(=O)(=O)c1ccccc1)C(=O)O | 13 | 1.9 | 6.7 |  |
| C#CC(CCCN1CCC[C@@H](CCC2CCNCC2)C1=O)CC(=O)O (stereo partly specified) | 3100 | 344 | 9 |  |
| O=C(O)C[C@H](NC(=O)C[C@H]1CCCN(CCC2CCNCC2)C1=O)c1cccnc1 | 11 | 37 | 0.3 |  |
| C[C@H](CC(=O)O)NC(=O)CN1CCC[C@@H](CCC2CCNCC2)C1=O | 640 | 140 |  |  |
| C#C[C@H](CC(=O)O)NC(=O)CN1CCC[C@@H](CCc2ccnc(N)c2)C1=O | 340 | 435 | 0.78 |  |
